Measured values taken from PMC5078010 (Oncotarget, 2016).
“Also recorded” adds a separate entry of the source. One block for each molecule: values may come before it. FAM = carboxyfluorescein

Assays:
[1] = test system: HDM2 variant C8 (residues 1-125) / p53; assay: In vitro pull-down, selectant C8; format: binding, human; details: PM2 10 μM; HDM2 residues 1-125
Protocol: (§3) Protein G beads were incubated with anti-HA (1μg per 10μL beads) for 1 hour in PBST-3%BSA and subsequently washed thrice in PBST-0.1%BSA. IVT-expressed protein was incubated with the beads on a rotator for 30 mins. […] IVT-containing secondary protein was added to the mixture and incubation allowed for 1 hour. Beads were finally washed thrice in PBST-0.1%BSA and thrice with PBS, and bound proteins eluted by resuspension in 20μL SDS-PAGE loading buffer and incubation at 95 °C for 5 minutes. Where required, blank IVT extract (no template DNA added) was used as control. The eluates were subjected to electrophoresis, transferred to nitrocellulose membranes and probed for p53 with DO1-HRP or for HDM2 with anti-HA antibody followed by rabbit anti-mouse (Dakocytomation). Image acquisition was carried out using either film or digitally (Odyssey FC, Li-Cor).

[2] = test system: HDM2 variant C11 (residues 1-125) / p53; assay: In vitro pull-down, selectant C11; format: binding, human; details: PM2 10 μM; HDM2 residues 1-125
Protocol: as §3

[3] = test system: HDM2 variant C12 (residues 1-125) / p53; assay: In vitro pull-down, selectant C12; format: binding, human; details: PM2 10 μM; HDM2 residues 1-125
Protocol: as §3

[4] = test system: HDM2-C8 (residues 1-125), M62A reverted / p53; assay: In vitro pull-down, C8 with M62A reverted; format: binding, human
Protocol: as §3

[5] = test system: HDM2 L34P (residues 1-125) / p53; assay: In vitro pull-down, L34P; parameters: species or system human; details: PM2 10 μM; N-terminal point mutant L34P; reduced p53 binding
Protocol: as §3

[6] = test system: HDM2 Y60C (residues 1-125) / p53; assay: In vitro pull-down, Y60C; parameters: species or system human; details: PM2 10 μM; N-terminal point mutant Y60C; reduced p53 binding
Protocol: as §3

[7] = test system: HDM2 F55L (residues 1-125) / p53; assay: In vitro pull-down, F55L; parameters: species or system human; details: PM2 10 μM; N-terminal point mutant F55L; p53 binding retained
Protocol: as §3

[8] = test system: HDM2 P89S (residues 1-125) / p53; assay: In vitro pull-down, P89S; parameters: species or system human; details: PM2 10 μM; N-terminal point mutant P89S; p53 binding retained
Protocol: as §3

[9] = test system: HDM2 I99V (residues 1-125) / p53; assay: In vitro pull-down, I99V; parameters: species or system human; details: PM2 10 μM; N-terminal point mutant I99V; p53 binding retained
Protocol: as §3

[10] = test system: HDM2 Y67H (N-terminal domain) / p53; assay: In vitro pull-down, Y67H; format: binding, human; details: N-terminal point mutant Y67H
Protocol: as §3

[11] = test system: HDM2 C77R (residues 1-125) / p53; assay: In vitro pull-down, C77R; format: binding, human; details: N-terminal point mutant C77R
Protocol: as §3

[12] = test system: HDM2 V108A (N-terminal domain) / p53; assay: In vitro pull-down, V108A; format: binding, human; details: N-terminal point mutant V108A
Protocol: as §3

[13] = test system: C8-derived point mutants in full-length HDM2 / p53; assay: In vitro pull-down, full-length point mutants; format: binding, human; details: PM2 10 μM; full-length HDM2, mutations displaying the PM2-resistant phenotype
Protocol: as §3

HDM2 K36E (1-125) / p53 = assay: In vitro pull-down, K36E; format: binding, human; details: HDM2 (1-125) K36E
Protocol: as §3

HDM2 Y48C (1-125) / p53 = assay: In vitro pull-down, Y48C; format: binding, human; details: HDM2 (1-125) Y48C
Protocol: as §3

[14] = test system: WT and indicated C8-derived HDM2 (1-125) point mutants / p53; assay: In vitro pull-down, Fig. S1A; format: binding, human
Protocol: as §3

[15] = test system: WT and indicated C11/C12-derived HDM2 (1-125) mutants / p53; assay: In vitro pull-down, Fig. S1B; format: binding, human
Protocol: as §3

[16] = test system: WT and indicated HDM2 (1-125) single and double point mutants / p53; assay: In vitro pull-down, Fig. S3; format: binding, human
Protocol: as §3

HDM2 F55A (1-125) / p53 = assay: In vitro pull-down, F55A; format: binding, human; details: HDM2 (1-125) F55A
Protocol: as §3

[17] = test system: wild-type HDM2 (full-length) / p53 in p53/MDM2-null DKO cells; assay: p53 reporter assay in DKO cells, WT HDM2; format: cell-based, mouse; details: for p53 activity: percentage of p53-alone, ~ 6% without inhibitor
Protocol: (§1) Mouse embryonic fibroblast p53/Mdm2 double-knockout (DKO) cells (a kind gift from Guillermina Lozano) were maintained in Dulbecco's modified Eagle's medium (DMEM) with 10% (v/v) foetal calf serum (FCS) and 1% (v/v) penicillin/streptomycin. The cells were seeded at 1.0 × 10^5 cells/well in 6-well plates, 24 hours prior to transfection. Cells were co-transfected with parental or individual PM2-resistant HDM2 plasmid, p53-pcDNA plasmid, LacZ reporter plasmid and luciferase transfection efficiency plasmid using TurboFect transfection reagent (Thermo Scientific) according to the manufacturer's instructions. […] In all cases, the total amount of plasmid DNA transfected per well was equilibrated by addition of the parental vector pcDNA3.1a (+).
(§2) DKO cells were harvested 24hours post transfection and β-galactosidase activities were assessed using the Dual-light System (Applied Biosystems) according to the manufacturer's protocol. β-galactosidase activity was normalized with luciferase activity for each sample. To check for expression levels of relevant proteins via western blot, 5 μg of the cell lysates were probed for p53 with horseradish peroxidase conjugated DO1 antibody, for HDM2 and actin with anti-HA antibody and AC15 antibody respectively followed by rabbit anti-mouse.

[18] = test system: HDM2-C8 (full-length) / p53 in p53/MDM2-null DKO cells; assay: p53 reporter assay in DKO cells, HDM2-C8; format: cell-based, mouse
Protocol: as §1, §2

[19] = test system: HDM2 L34P (full length) / p53 in p53/MDM2-null DKO cells; assay: p53 reporter assay in DKO cells, L34P; format: cell-based, mouse; details: knockdown of p53 activity decreased ~7 fold vs WT
Protocol: Mouse embryonic fibroblast p53/Mdm2 double-knockout (DKO) cells (a kind gift from Guillermina Lozano) [58] were maintained in Dulbecco's modified Eagle's medium (DMEM) with 10% (v/v) foetal calf serum (FCS) and 1% (v/v) penicillin/streptomycin. The cells were seeded at 1.0 × 10^5 cells/well in 6-well plates, 24 hours prior to transfection. […] In all cases, the total amount of plasmid DNA transfected per well was equilibrated by addition of the parental vector pcDNA3.1a (+).

[20] = test system: HDM2 Y60C (full length) / p53 in p53/MDM2-null DKO cells; assay: p53 reporter assay in DKO cells, Y60C; format: cell-based, mouse; details: knockdown of p53 activity decreased ~7 fold vs WT
Protocol: as §1, §2

[21] = test system: HDM2 F55L (full length) / p53 in p53/MDM2-null DKO cells; assay: p53 reporter assay in DKO cells, F55L; format: cell-based, mouse; details: knockdown reduced ~[…] vs WT
Protocol: as §1, §2

[22] = test system: HDM2 I99V (full length) / p53 in p53/MDM2-null DKO cells; assay: p53 reporter assay in DKO cells, I99V; format: cell-based, mouse; details: knockdown reduced ~[…] vs WT
Protocol: as §1, §2

[23] = test system: HDM2 P89S (full length) / p53 in p53/MDM2-null DKO cells; assay: p53 reporter assay in DKO cells, P89S; format: cell-based, mouse; details: PM2
Protocol: as §1, §2

[24] = test system: HDM2-F55L (residues 7-134, RFP fusion) / p53 (residues 1-81, GFP fusion) in F2H-BHK cells; assay: Fluorescent two-hybrid (F2H) co-localization assay; format: cell-based; details: PM2 0-50 μM, 6-8 hours, serum-free DMEM, 37°C; n=2
[25] = test system: xenograft tumours in mice; p53; parameters: method as in PMID 25145672, PMID 26070072; details: cited from earlier work
HDM2 L82P = details: at the cost of reduced p53 binding; cited from earlier work
Excerpt: The crystal structure of the stapled peptide M06 bound to HDM2-M62A was recently described. […] The side chains of L34 and Y60 pack against numerous hydrophobic residues contributing to the p53-binding hydrophobic cleft (Figure 8). Mutations to less bulky residues (P and C respectively) likely result in altered struc ...

HDM2 M62A = details: M62A mutation; earlier selection of Nutlin-resistant HDM2; cited from earlier work
[26] = molecular target: T1, HDM2 (amino acids 1-125), recombinant (human, UniProt Q00987 1-125); assay: fluorescence polarisation; competitive fluorescence anisotropy, apparent Kd; PM2 or p53 peptide titrated against wild-type HDM2 at 150 nM or HDM2-F55L at 200 nM with 50 nM FAM-12-1 peptide; PBS pH 7.4, 3% DMSO, 0.1% Tween-20; details: both partners purified
T1 construct: also called WT HDM2; source: E. coli BL21(DE3) pLysS, purified (GSTrap, on-column PreScission cleavage, Resource S cation exchange)
T1 sequence (Q00987 1-125): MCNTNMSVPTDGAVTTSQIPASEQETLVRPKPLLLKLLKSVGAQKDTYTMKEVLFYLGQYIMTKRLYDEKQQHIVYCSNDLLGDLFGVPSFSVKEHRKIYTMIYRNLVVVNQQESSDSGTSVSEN

[27] = molecular target: T2, HDM2-F55L (amino acids 1-125), recombinant (human, UniProt Q00987 1-125, F55L); assay: as above; details: both partners purified
T2 construct: also called mutant HDM2-F55L; source: E. coli BL21(DE3) pLysS, purified (GSTrap, on-column PreScission cleavage, Resource S cation exchange)
T2 sequence (Q00987 1-125 F55L): as the sequence (Q00987 1-125) above, with F55L counted along it

Molecule: CC(=O)N[C@H](C(=O)N[C@@H](CO)C(=O)N[C@@H](Cc1ccccc1)C(=O)N[C@]1(C)CCCCCCC=CCCC[C@@](C)(C(N)=O)NC(=O)[C@H](CC(C)C)NC(=O)[C@H](CC(C)C)NC(=O)[C@H](C)NC(=O)[C@H](Cc2c[nH]c3ccccc23)NC(=O)[C@H](Cc2ccc(O)cc2)NC(=O)[C@H](CCC(=O)O)NC1=O)[C@@H](C)O [PM2]
PM2 resistance (inhibition of p53 pull-down) [1]: appeared significantly resistant to PM2, with little or no reduction in their interaction with p53 in the presence of PM2
PM2 resistance (inhibition of p53 pull-down) [2]: appeared significantly resistant to PM2, with little or no reduction in their interaction with p53 in the presence of PM2
PM2 resistance (inhibition of p53 pull-down) [3]: appeared significantly resistant to PM2, with little or no reduction in their interaction with p53 in the presence of PM2
PM2 resistance after reversion of M62A in C8 [4]: little impact upon reversion of the M62A mutation to PM2 binding in HDM2-C8; also recorded: reversion of this mutation in the C8 selectant did not alter the phenotype
PM2 resistance (inhibition of p53 pull-down) [5]: clearly resistant to PM2 binding
PM2 resistance (inhibition of p53 pull-down) [6]: clearly resistant to PM2 binding
PM2 resistance (inhibition of p53 pull-down) [7]: showed weak resistance to PM2
PM2 resistance (inhibition of p53 pull-down) [8]: showed weak resistance to PM2
PM2 resistance (inhibition of p53 pull-down) [9]: showed weak resistance to PM2
PM2 resistance (inhibition of p53 pull-down) [10]: showed no PM2-resistance phenotype
PM2 resistance (inhibition of p53 pull-down) [11]: showed no PM2-resistance phenotype
PM2 resistance (inhibition of p53 pull-down) [12]: showed no PM2-resistance phenotype
PM2 resistance (inhibition of p53 pull-down) [13]: reduced inhibition by PM2; also recorded: behaved similarly when introduced as point mutants into full-length HDM2
resistance phenotype (p53 pull-down) (HDM2 K36E (1-125) / p53): Only the L54P mutation showed an exceptionally weak resistance phenotype
resistance phenotype (p53 pull-down) (HDM2 Y48C (1-125) / p53): Only the L54P mutation showed an exceptionally weak resistance phenotype
PM2 inhibition of p53 pull-down [14]: no significant reduction in PM2 inhibition
PM2 inhibition of p53 pull-down [15]: no significant reduction in PM2 inhibition
PM2 inhibition of p53 pull-down [16]: no significant reduction in PM2 inhibition
effect of F55A on interaction with p53 or PM2 (HDM2 F55A (1-125) / p53): make little difference towards interaction with p53 or PM2
p53 activity ([17]; PM2 20 μM): ~ 26%
magnitude of rescue of p53 activity by PM2 ([17]; comparison with F55L and I99V (Figures 6B, 6C)): ~ 4 fold
increase in p53 activity on addition of PM2 ([18]; PM2 20 μM): did not result in any significant increase in p53 activity
rescue of p53 activity by PM2 [19]: no rescue observed
rescue of p53 activity by PM2 [20]: no rescue observed
magnitude of rescue of p53 activity by PM2 [21]: ~ 3.2 fold
magnitude of rescue of p53 activity by PM2 [22]: ~ 3.2 fold
behaviour in p53 reporter assay [23]: essentially behaved like wild-type HDM2
inhibition of p53-HDM2 F55L interaction compared to WT [24]: no significant difference compared to WT for inhibition

Molecule: CC(C)(C)C[C@@H]1N[C@@H](C(=O)N[C@H]2CC[C@H](O)CC2)[C@H](c2cccc(Cl)c2F)[C@]12C(=O)Nc1cc(Cl)ccc12 [SAR405838]
development of resistance [25]: development of resistance to the Nutlin analogue SAR405838 was associated with a point-mutated p53 that still retained activity

Molecule: Nutlin [reference compound]
p53 activity ([17]; Nutlin 10 μM): ~ 26%
effect of Nutlin on C8 function ([18]; Nutlin 10 μM): had little effect in abrogating the function of C8
rescue of p53 activity by Nutlin [20]: no rescue observed
resistance of L82P to Nutlin binding (HDM2 L82P): resistant to Nutlin binding at the cost of reduced p53 binding
effect of M62A on Nutlin binding (HDM2 M62A): shown to abrogate Nutlin binding

binding result [26]: binds
binding result [27]: binds
B1: carboxyfluorescein (FAM) labelled 12-1 peptide (peptide)
peptide: {FAM}-RFMDYWEGL-NH2
notes: tracer peptide of the fluorescence anisotropy assay; also called the labelled peptide
